Key:
Assay type in all cases: cell-based, human
[1] = system: H9 hESCs; assay: Screening of culture conditions by immunostaining for Oct4, Sox2, Brachyury, Sox17; details: for rescue of Oct4 expression under SB431542: added with SB431542
Procedure: Table 2 and Table 3 show the screening of culture conditions for inducing mesoendoderm differentiation into CDM. H9 hESCs were grown for 7 days or more in CDM-BSA or CDM-PVA supplemented with different growth factors (Activin, BMP4, FGF2) or inhibitors (SU5402 for FGF, SB431542 for Activin/Nodal/TGFβ, BIO for βCatenin). Then, immunostaining analysis were used to determine the fractions of cells expressing the pluripotent marker Oct-4, neuroectoderm marker Sox2, the mesoderm marker Brachyury, and the endoderm marker Sox17. The quantities of expressing cells were divided into five arbitrary categories. 0 for absence of expression, VL for expressing cells <1%, L for expressing cells <5%, H for expressing cells >10%, VH for expressing cells >50%. IN red are indicated the conditions allowing the generation of mesendoderm cells expressing Brachyury or Sox17.
HESCs or differentiated progenitors were fixed for 20 minutes at 4° C. in 4% paraformaldehyde (PFA) and then washed three times in PBS. Cells were incubated for 20 minutes at room temperature in PBS containing 10% goat serum (Serotec) and subsequently incubated over night at 4° C. with primary antibody diluted in 1% goat serum in PBS as follows: SSEA-3 (1:100, Santa Cruz), SSAE-1 (1:25), Tra-1-60 (1:100, Santa CruZ), Oct-4 (1:100, Abcam ab18976 or SantaCruz), Sox2 (1:100, Abcam ab15830), Alkaline Phophatase (1:50, Abcam ab17989), Brachyury (1:100, Abcam ab20680 or RandD systems), Sox17 (RandD systems), FoxA2 (1:50, Abcam ab5074), GATA4 (1:250, Santa CruZ), GATA6 (1:200, Abcam ab22600 or Santa Cruz), Vent-2 (1:100, Abcam ab20913), Goosecoid (1:25, Abcam ab21059), Wnt3A (1:100, Abcam ab19925), CXCR4 (1:100, RanD Systems or Pharmingen). Nestin (1:200, Abcam ab5968), NCAM (1:100, Abcam ab8077), GFAP (ZZ), Neurofilament (ZZ), βIII Tubulin (ZZ), Glutamate (ZZ), N-Cadherin (1:100, Abcam ab18203 or ZZ). Cells were then washed three times in PBS and incubated with fluorescein-Isothiocyanate-conjugated anti-mouse IgG or IgM (Sigma 1:200 in 1% goat serum in PBS) or rat IgM (Jackson laboratory 1:300 in goat serum in PBS) or rabbit IgG (Jackson laboratory 1:200 in donkey serum in PBS) for two hours at room temperature. Unbound secondary antibody was removed by 3 washes in PBS. Hoechst 33258 was added to the first wash (Sigma 1:10000).
We then developed a method for inducing differentiation of hESCs into the three primary germ layers. Culture conditions inductive for mesoderm, endoderm and neuroectoderm were screened using an approach based on immunostaining analyses for the expression of proteins specifically expressed by pluripotent cells (Oct-4), neuroectoderm progenitors (Sox2 in absence of Oct4), endoderm progenitors (Sox17) and mesoderm progenitors (Brachyury). In summary, hESCs grown in CDM (CDM-BSA or hu-CDM) were plated on fibronectin in CDM-BSA/AF or CDM-PVA/AF. Then cocktails of growth factors (BMP4, FGF2, Activin) or chemical inhibitors (SU5402, SB431542) were added at different times and for different periods. After 7 to 10 days treatment, cells were fixed and then the expression of Oct-4/Sox2, Sox17 and Brachyury was analysed using immunostaining. The effect of three growth factors on the differentiation of hESCs into the primary germ layers was systematically analysed in our screen. We also studied the function of FGF and Activin signalling pathways in the maintenance of the pluripotent state by analysing the effect of the SU5402, a chemical inhibitor of FGF receptors, and the SB431542, a chemical inhibitor of Activin/TGFβ receptors.

[2] = system: hESC derived EBs; assay: Real time qPCR / RT-PCR of neuroectoderm and pluripotency markers in EBs
Procedure: Four independent batches of WT and Lefty EBs were used for this analysis.
Five independent batches of DMSO- and SB431542-treated EBs were used for this analysis.
Lefty or Cerb-S expressing hESCs (as well as wildtype H9 and hSF-6 hESCs) were grown in 6 cm dishes (Corning), on mouse feeders. When confluent, hESCs were passaged using collagenase 1 mg/ml, as previously described (Schatten et al., 2005) and cultured in non-adherent conditions in CDM supplemented with either SU5402 (Calbiochem; 10 μM), SB431542 (Tocris; 20 μM), FGF-2 (R&D Systems; 12 ng/ml) or Noggin 200 ng/ml.
For some RT-PCR experiments, 50-100 ng of RNA were used for each RT-PCR reaction, using the OneStep RT-PCR kit according to manufacturer instructions. For real-time PCR, 1 μg RNA was reverse-transcribed using the Qiagen QuantiTect Reverse Transcription kit. 1/20-1/40 of each cDNA reaction was used for each real-time PCR reaction using the QuantiTect SYBR Green PCR Kit (Qiagen) according to manufacturer instructions. Relative quantification of gene expression was done by normalising the detected levels of gene of interest mRNA to those of the house-keeping GAPDH gene. All primers were purchased from Qiagen, with the exception of Xenopus Cerb-S: Forward 5′-[…]-3′ (SEQ ID NO: 1); Reverse 5′-ATGGTGCAGGGTAG TAGATG-3′ (SEQ ID NO: 2). Mouse Lefty2: Forward 5^r-[…]-3′ (SEQ ID NO: 3); Reverse 5′-[…]-3′ (SEQ ID NO: 4).

[3] = system: hESCs; assay: Quantitation of β-tubulin III positive cells in monolayer differentiation; details: Lefty expressing hESCs, feeder free monolayer, CDM; FGF 12 ng/ml, Noggin 200 ng/ml, SU5402 20 μM
Procedure: In some experiments, Wildtype and Lefty expressing hESCs were grown on fibronectin in FGF (12 ng/ml)/Activin (20 ng/ml) as a monolayer in the absence of a feeder layer (Vallier et al., 2005). When cells were 70-80% confluent medium was changed to either CDM only, CDM/FGF (12 ng/ml), CDM/Noggin 200 ng/ml, CDM/SU5402 and differentiated for 24 days.
To quantify the neurogenic potential of Lefty expressing hESCs, we cultured Lefty expressing hESCs in feeder-free conditions as a monolayer in CDM supplemented with Activin and FGF as described previously (Vallier et al., 2005). When cells reached 70-80% confluency, medium was changed to CDM only, CDM plus FGF (12 ng/ml) (CDM/FGF), CDM plus the BMP inhibitor Noggin (200 ng/ml) ([…]) (CDM/SU5402), and cells were cultured in these conditions for 24 days
The incidence of neural differentiation was determined by counting the number of β-tubulin III positive cells in random fields.

[4] = system: hESCs; assay: FACs fraction of cells expressing CXCR4 or PDGFR after mesendoderm induction in CDM PVA; details: Activin 100 ng/ml at third step with BMP4 and FGF2, CDM-PVA
Procedure: Fraction of cells expressing CXCR4 or PDGFa was determined using FACs after the third day in CDM+BMP+FGF+Activin.
hESCs grown in Feeder free and serum free conditions were harvested using 5 mg/ml collagenase IV then plated into plates pre-coated with fibronectin. hESCs were grown for 48 hours in CDM supplemented with Activin (10 ng/ml, RandD systems) and FGF2 (12 ng/ml, RandD systems). To induce extra-embryonic differentiation, hESCs were grown for 5 additional days in CDM supplemented with BMP4 (10 ng/ml, RandD systems). To obtain neuroectoderm progenitors, hESCs were grown in CDM or in CDM-PVA in the presence of SB431542 (10 μM Tocris) and FGF2 (12 ng/ml, RandD systems) for 7 additional days. The resulting cells were grown in non-adherent conditions for 10 days and then plated back for 5 additional days in CDM to obtain fully differentiated neuronal cells. To obtain mesendoderm precursors, hESCs were grown for 3 additional days in CDM-PVA in the presence of SU5402 (10 μM, Calbiochem) and Activin (5 ng/ml, RandD systems). […]
For detection of Tra-1-60, SSEA-3, N-CAM, CXCR4 and PDGFαRecptor adherent cells were washed twice in PBS then incubated for 20 minutes at 37 C in cell dissociation buffer (Invitrogen). […] Live cells identified by 7-AAD exclusion were analyzed for surface-marker expression using FACSCalibur.

O=C1Nc2cc(Br)ccc2/C1=C1/Nc2ccccc2/C1=N\O [BIO, reference compound]
rescue of Oct4 expression under SB431542 [1]: not sufficient to rescue the expression of Oct4

NC(=O)c1ccc(-c2nc(-c3ccc4c(c3)OCO4)c(-c3ccccn3)[nH]2)cc1 [SB431542, 4-(5-Benzol[1,3]dioxol-5-yl-4-pyrldin-2-yl-1H-imidazol-2-yl)-benzamide hydrate]
cells expressing the mesendoderm markers Bra, Sox17, FoxA2, and αFP ([1]; in the presence of SB431542): never observed | Nestin, Sox3, and NGN2 expression (real time qPCR) ([2]; 20 μM, EBs cultured 14-16 days, vs DMSO): average increase | pluripotency marker Oct4 (RT-PCR time course) ([2]; EBs harvested every 4 days over 16 days, compared to controls): rapid down-regulation | Sox1 expression levels (real time qPCR) ([2]; EBs in CDM 14-16 days, vs DMSO): not a significant increase

Cc1c[nH]c(C=C2C(=O)Nc3ccccc32)c1CCC(=O)O [SU5402, 3-[3-(2-Carboxyethyl)-4-methylpyrrol-2-methylidenyl]-2-indolinone, reference compound]
number of β-tubulin III positive cells compared to controls [3]: significant reduction

FGF2: human fibroblast growth factor 2
rescue of Oct4 expression under SB431542 [1]: not sufficient to rescue the expression of Oct4 | number of β-tubulin III positive cells compared to controls [3]: did not show a significant increase

B1: Noggin: the BMP inhibitor Noggin (protein, UniProt Q13253 28-232, looked up)
Noggin: QHYLHIRPAPSDNLPLVDLIEHPDPIFDPKEKDLNETLLRSLLGGHYDPGFMATSPPEDRPGGGGGAAGGAEDLAELDQLLRQRPSGAMPSEIKGLEFSEGLAQGKKQRLSKKLRRKLQMWLWSQTFCPVLYAWNDLGSRFWPRYVKVGSCFSKRSCSVPEGMVCKPSKSVHLTVLRWRCQRRGGQRCGWIPIQYPIISECKCSC
number of β-tubulin III positive cells compared to controls [3]: significant increase

B2: Activin: dimeric polypeptide stimulating the Activin/Nodal pathway (protein, UniProt P08476 311-426, looked up)
Inhibin beta A chain: GLECDGKVNICCKKQFFVSFKDIGWNDWIIAPSGYHANYCEGECPSHIAGTSGSSLSFHSTVINHYRMRGHSPFANLKSCCVPTKLRPMSMLYYDDGQNIIKKDIQNMIVEECGCS
modifications: Inhibin beta A chain
fraction of cells expressing CXCR4 [4]: 70% | fraction of cells expressing PDGFR [4]: 7% | expression of neuroectoderm markers Sox1, Sox3, Nestin and NGN2 ([2]; addition to EB cultures): decreasing expression

Reference: US8323971B2, “Differentiation of pluripotent cells into primary germ layer progenitors” (Cambridge Enterprise Limited, priority 2006, dated 2012)
